Data set [1] has as its system HIV-1 (IIIB). Put plainly: microbe, parasite or virus in culture. It counts as cell-based.
Data set [2] can be described thus: physchem. Particulars: 23 °C, thermodynamic from solid; for solubility thermodynamic: fassif; for solubility thermodynamic at 24 h: FaSSIF.
Data set [3] is described as follows: in vitro. The following applies: human; for CC50 at 5 days: uninfected MT-4 cells.
Setting [4] is: Human immunodeficiency virus 1, IIIB, MT4, 120 h, read-out: MT4 EC50 (nM).
Setting [5] is: Human immunodeficiency virus 1, MT4, 120 h, HIV-1 (IIIB) replication in MT-4 cells, 5 days incubation, Cell Titer Glo, read-out: MT4 EC50.

We go through 14 molecules from patent publication US20250127801A1, “BRIDGED TRICYCLIC CARBAMOYLPYRIDONE COMPOUNDS AND USES THEREOF” (priority 2023, published 2025).

Values after ≈ are worked out from the molar mass of the structure shown. Read-outs that look alike come from different tables or passages of the source.

In general, EC50 refers to the concentration giving half of the maximal effect. Broadly, the thermodynamic solubility is the concentration in solution at equilibrium with solid. On to `CC1=NO[C@@]2(CC[C@H](C)N3C[C@H]2n2cc(C(=O)NCc4ccc(F)cc4F)c(=O)c(OC(=O)N(C)c4ncccc4CN(C)C(=O)OCOP(=O)(O)O)c2C3=O)C1` [Compound 61, (phosphonooxy)methyl ((2-(((((3′S,5S,7′R)-10′-((2,4-difluorobenzyl)carbamoyl)-3,3′-dimethyl-1′,11′-dioxo-1′,4′,5′,11′-tetrahydro-3′H,4H,7′H-spiro[isoxazole-5,6′-[2,7]methanopyrido[1,2-a][1,4]diazonin]-12′-yl)oxy)carbonyl)(methyl)amino)pyridin-3-yl)methyl)(methyl)carbamate], for which the EC50 in data set [1] (setting [4]) was 1.39 nM. The thermodynamic solubility in data set [2] was 4140 µg/mL (≈ 5.07 mM). For the same molecule, in data set [3], the CC50 amounted to 15.2 µM.

With `CC1=NO[C@@]2(CC[C@H](C)N3C[C@H]2n2cc(C(=O)NCc4ccc(F)cc4F)c(=O)c(OC(=O)N(C)c4ncccc4CN(CCO)C(=O)OCOP(=O)(O)O)c2C3=O)C1` [Compound 35, (phosphonooxy)methyl ((2-(((((3′S,5S,7′R)-10′-((2,4-difluorobenzyl)carbamoyl)-3,3′-dimethyl-1′,11′-dioxo-1′,4′,5′,11′-tetrahydro-3′H,4H,7′H-spiro[isoxazole-5,6′-[2,7]methanopyrido[1,2-a][1,4]diazonin]-12′-yl)oxy)carbonyl)(methyl)amino)pyridin-3-yl)methyl)(2-hydroxyethyl)carbamate], the EC50 in data set [1] (setting [4]) was 2.04 nM. Moreover, the solubility (thermodynamic) in data set [2] came to 4460 µg/mL (≈ 5.26 mM). Moreover, the CC50 in data set [3] was determined as 11.6 µM.

With `CC1=NO[C@@]2(CC[C@H](C)N3C[C@H]2n2cc(C(=O)NCc4ccc(F)cc4F)c(=O)c(OCOC(=O)O[C@H]4CCCC[C@H]4COP(=O)(O)O)c2C3=O)C1` [Compound 53, (((3′S,5S,7′R)-10′-((2,4-difluorobenzyl)carbamoyl)-3,3′-dimethyl-1′,11′-dioxo-1′,4′,5′,11′-tetrahydro-3′H,4H,7′H-spiro[isoxazole-5,6′-[2,7]methanopyrido[1,2-a][1,4]diazonin]-12′-yl)oxy)methyl ((1S,2S)-2-((phosphonooxy)methyl)cyclohexyl) carbonate], the EC50 in data set [1] (setting [5]) came to 4.96 nM. The molecule also registered a thermodynamic solubility at 24 h in data set [2] of 4680 µg/mL (≈ 6.22 mM). In data set [3], this molecule registered a CC50 at 5 days of 35.7 µM.

Turning to `CC1=NO[C@@]2(CC[C@H](C)N3C[C@H]2n2cc(C(=O)NCc4ccc(F)cc4F)c(=O)c(OCOC(=O)N(C)Cc4ccc(C(=O)O)cc4OP(=O)(O)O)c2C3=O)C1` [Compound 74, 4-(((((((3′S,5S,7′R)-10′-((2,4-difluorobenzyl)carbamoyl)-3,3′-dimethyl-1′,11′-dioxo-1′,4′,5′,11′-tetrahydro-3′H,4H,7′H-spiro[isoxazole-5,6′-[2,7]methanopyrido[1,2-a][1,4]diazonin]-12′-yl)oxy)methoxy)carbonyl)(methyl)amino)methyl)-3-(phosphonooxy)benzoic acid], the concentration giving a half-maximal response (EC50) in data set [1] (setting [4]) worked out at 6.61 nM. The molecule also showed a solubility (thermodynamic) in data set [2] of 4860 µg/mL (≈ 6.05 mM). The CC50 in data set [3] was found to be 29.4 µM.

Take `CC1=NO[C@@]2(CC[C@H](C)N3C[C@H]2n2cc(C(=O)NCc4ccc(F)cc4F)c(=O)c(OCOC(=O)N(C)c4ncccc4COC(=O)[C@@H](N)C(C)C)c2C3=O)C1` [Compound 12, (2-((((((3′S,5S,7′R)-10′-((2,4-difluorobenzyl)carbamoyl)-3,3′-dimethyl-1′,11′-dioxo-1′,4′,5′,11′-tetrahydro-3′H,4H,7′H-spiro[isoxazole-5,6′-[2,7]methanopyrido[1,2-a][1,4]diazonin]-12′-yl)oxy)methoxy)carbonyl)(methyl)amino)pyridin-3-yl)methyl L-valinate]: the EC50 in data set [1] (setting [5]) amounted to 4.33 nM. The same molecule gave a thermodynamic solubility at 24 h in data set [2] of 2700 µg/mL (≈ 3.47 mM). The same molecule displayed a CC50 at 5 days in data set [3] of 14.6 µM.

For the molecule `CC1=NO[C@@]2(CC[C@H](C)N3C[C@H]2n2cc(C(=O)NCc4ccc(F)cc4F)c(=O)c(OCOC(=O)CC(C)(C)c4c(CC(=O)N[C@@H](CC(=O)O)C(=O)O)cc(C)cc4OP(=O)(O)O)c2C3=O)C1` [Compound 43, (2-(2-(4-((((3′S,5S,7′R)-10′-((2,4-difluorobenzyl)carbamoyl)-3,3′-dimethyl-1′,11′-dioxo-1′,4′,5′,11′-tetrahydro-3′H,4H,7′H-spiro[isoxazole-5,6′-[2,7]methanopyrido[1,2-a][1,4]diazonin]-12′-yl)oxy)methoxy)-2-methyl-4-oxobutan-2-yl)-5-methyl-3-(phosphonooxy)phenyl)acetyl)-L-aspartic acid], the EC50 in data set [1] (setting [4]) amounted to 2.64 nM. In data set [2], the thermodynamic solubility worked out at 5280 µg/mL (≈ 5.5 mM). The same molecule registered a CC50 in data set [3] of 30.7 µM.

Consider `CC1=NO[C@@]2(CC[C@H](C)N3C[C@H]2n2cc(C(=O)NCc4ccc(F)cc4F)c(=O)c(OCOC(=O)CC(C)(C)c4c(CC(=O)N5CCC[C@@H]5C(=O)O)cc(C)cc4OP(=O)(O)O)c2C3=O)C1` [Compound 57, (2-(2-(4-((((3′S,5S,7′R)-10′-((2,4-difluorobenzyl)carbamoyl)-3,3′-dimethyl-1′,11′-dioxo-1′,4′,5′,11′-tetrahydro-3′H,4H,7′H-spiro[isoxazole-5,6′-[2,7]methanopyrido[1,2-a][1,4]diazonin]-12′-yl)oxy)methoxy)-2-methyl-4-oxobutan-2-yl)-5-methyl-3-(phosphonooxy)phenyl)acetyl)-D-proline], for which the EC50 in data set [1] (setting [4]) turned out to be 2.55 nM. The same molecule registered a thermodynamic solubility in data set [2] of 5460 µg/mL (≈ 5.79 mM). The molecule also yielded a CC50 in data set [3] of 15 µM.

For `CC1=NO[C@@]2(CC[C@H](C)N3C[C@H]2n2cc(C(=O)NCc4ccc(F)cc4F)c(=O)c(OCOC(=O)O[C@@H]4CCCC[C@H]4OP(=O)(O)O)c2C3=O)C1` [Compound 45, (((3′S,5S,7′R)-10′-((2,4-difluorobenzyl)carbamoyl)-3,3′-dimethyl-1′,11′-dioxo-1′,4′,5′,11′-tetrahydro-3′H,4H,7′H-spiro[isoxazole-5,6′-[2,7]methanopyrido[1,2-a][1,4]diazonin]-12′-yl)oxy)methyl ((1R,2R)-2-(phosphonooxy)cyclohexyl) carbonate], the EC50 in data set [1] (setting [5]) turned out to be 1.73 nM. In data set [2], this molecule had a solubility (thermodynamic) at 24 h of 5320 µg/mL (≈ 7.21 mM). In data set [3], this molecule displayed a CC50 at 5 days of 11.4 µM.

Regarding `CNCC(=O)OCc1cccnc1N(C)C(=O)OCOc1c2n(cc(C(=O)NCc3ccc(F)cc3F)c1=O)[C@@H]1CN(C2=O)[C@@H](C)CC[C@]12CC(C)=NO2` [Compound 9, (2-((((((3′S,5S,7′R)-10′-((2,4-difluorobenzyl)carbamoyl)-3,3′-dimethyl-1′11′-dioxo-1′,4′,5′,11′-tetrahydro-3′H,4H,7′H-spiro[isoxazole-5,6′-[2,7]methanopyrido[1,2-a][1,4]diazonin]-12′-yl)oxy)methoxy)carbonyl)(methyl)amino)pyridin-3-yl)methyl methylglycinate], in data set [1] (setting [5]), the EC50 worked out at 1.4 nM. Moreover, in data set [2], the thermodynamic solubility at 24 h was 3240 µg/mL (≈ 4.3 mM). Besides, the CC50 at 5 days in data set [3] was determined as 10.5 µM.

For `CC1=NO[C@@]2(CC[C@H](C)N3C[C@H]2n2cc(C(=O)NCc4ccc(F)cc4F)c(=O)c(OCc4oc(=O)oc4C)c2C3=O)C1` [Compound 22, (3′S,5S,7′R)—N-(2,4-difluorobenzyl)-3,3′-dimethyl-12′-((5-methyl-2-oxo-1,3-dioxol-4-yl)methoxy)-1′,11′-dioxo-1′,4′,5′,11′-tetrahydro-3′H,4H,7′H-spiro[isoxazole-5,6′-[2,7]methanopyrido[1,2-a][1,4]diazonine]-10′-carboxamide], the EC50 in data set [1] (setting [5]) came out at 1.18 nM. In data set [2], this molecule yielded a thermodynamic solubility at 24 h of 90 µg/mL (≈ 0.15 mM). Besides, in data set [3], the CC50 at 5 days came out at 12.4 µM.

As to `CC1=NO[C@@]2(CC[C@H](C)N3C[C@H]2n2cc(C(=O)NCc4ccc(F)cc4F)c(=O)c(OC(=O)OCc4ccccc4OP(=O)(O)O)c2C3=O)C1` [Compound 32, (3′S,5S,7′R)-10′-((2,4-difluorobenzyl)carbamoyl)-3,3′-dimethyl-1′,11′-dioxo-1′,4′,5′,11′-tetrahydro-3′H,4H,7′H-spiro[isoxazole-5,6′-[2,7]methanopyrido[1,2-a][1,4]diazonin]-12′-yl (2-(phosphonooxy)benzyl) carbonate], in data set [2], the thermodynamic solubility came out at 1330 µg/mL (≈ 1.86 mM).

For the molecule `CC1=NO[C@@]2(CC[C@H](C)N3C[C@H]2n2cc(C(=O)NCc4ccc(F)cc4F)c(=O)c(OCOC(=O)O[C@H]4CCCCC[C@@H]4OP(=O)(O)O)c2C3=O)C1` [Compound 77, (((3′S,5S,7′R)-10′-((2,4-difluorobenzyl)carbamoyl)-3,3′-dimethyl-1′,11′-dioxo-1′,4′,5′,11′-tetrahydro-3′H,4H,7′H-spiro[isoxazole-5,6′-[2,7]methanopyrido[1,2-a][1,4]diazonin]-12′-yl)oxy)methyl ((1S,2S)-2-(phosphonooxy)cycloheptyl) carbonate], the EC50 in data set [1] (setting [5]) turned out to be 2.05 nM. This molecule also registered a CC50 at 5 days in data set [3] of 19.4 µM.

Take `COC1=NO[C@@]2(CC[C@H](C)N3C[C@H]2n2cc(C(=O)NCc4ccc(F)cc4F)c(=O)c(OCOC(=O)N(C)C[C@@H]4CCCN4C(=O)OCOP(=O)(O)O)c2C3=O)C1` [Compound 16, (phosphonooxy)methyl (2S)-2-(((((((3′S,5S,7′R)-10′-((2,4-difluorobenzyl)carbamoyl)-3-methoxy-3′-methyl-1′,11′-dioxo-1′,4′,5′,11′-tetrahydro-3′H,4H,7′H-spiro[isoxazole-5,6′-[2,7]methanopyrido[1,2-a][1,4]diazonin]-12′-yl)oxy)methoxy)carbonyl)(methyl)amino)methyl)pyrrolidine-1-carboxylate]: the EC50 in data set [1] (setting [5]) stood at 2.93 nM. For the same molecule, the CC50 at 5 days in data set [3] came out at 16 µM.

For the molecule `CC1=NO[C@@]2(CC[C@H](C)N3C[C@H]2n2cc(C(=O)NCc4ccc(F)cc4F)c(=O)c(OCOC(=O)N(C)c4ncccc4CN(CC(=O)N[C@@H](CCC(=O)O)C(=O)O)C(=O)OCOP(=O)(O)O)c2C3=O)C1` [Compound 60, N-((2-((((((3′S,5S,7′R)-10′-((2,4-difluorobenzyl)carbamoyl)-3,3′-dimethyl-1′,11′-dioxo-1′,4′,5′,11′-tetrahydro-3′H,4H,7′H-spiro[isoxazole-5,6′-[2,7]methanopyrido[1,2-a][1,4]diazonin]-12′-yl)oxy)methoxy)carbonyl)(methyl)amino)pyridin-3-yl)methyl)-N-(((phosphonooxy)methoxy)carbonyl)glycyl-L-glutamic acid], the EC50 in data set [1] (setting [4]) turned out to be 1.59 nM. Further, in data set [3], the CC50 was found to be 13.8 µM.
